Each compound was assayed on human JAK1 (assay: In vitro JAK kinase assay (HTRF), JAK1). Conditions: ratio of JAK2 IC50 to JAK1 IC50 at 1 mM ATP.
Type: biochemical
Experimental: Compounds herein were tested for inhibitory activity of JAK targets according to the following in vitro assay described in Park et al., Analytical Biochemistry 1999, 269, 94-104. The catalytic domains of human JAK1 (a.a. 837-1142), JAK2 (a.a. 828-1132) and JAK3 (a.a. 781-1124) were expressed using baculovirus in insect cells and purified. The catalytic activity of JAK1, JAK2 or JAK3 was assayed by measuring the phosphorylation of a biotinylated peptide. The phosphorylated peptide was detected by homogenous time resolved fluorescence (HTRF). IC50s of compounds were measured for each kinase in the 40 μL reactions that contain the enzyme, ATP and 500 nM peptide in 50 mM Tris (pH 7.8) buffer with 100 mM NaCl, 5 mM DTT, and 0.1 mg/mL (0.01%) BSA. For the 1 mM IC50 measurements, ATP concentration in the reactions was 1 mM. Reactions were carried out at room temperature for 1 hour and then stopped with 20 μL 45 mM EDTA, 300 nM SA-APC, 6 nM Eu-Py20 in assay buffer (Perkin Elmer, Boston, Mass.). Binding to the Europium labeled antibody took place for 40 minutes and HTRF signal was measured on a PHERA star plate reader (BMG, Cary, N.C.). The Example compounds were each tested in the Example A assay (see Table 1 for data for the compounds of the examples as tested by the assay of Example A at 1 mM ATP).
In the case of `C[C@@H](O)c1nc2cnc3ccsc3c2n1[C@H]1CCCN(C(=O)CCc2ccccc2)C1` [Example 57], the JAK2/JAK1 was greater than 10. For `C[C@@H](O)c1nc2cnc3ccsc3c2n1[C@H]1CCCN(C(=O)CCC#N)C1` [Example 58, 4-((3S)-3-{2-[(1R)-1-Hydroxyethyl]-1H-imidazo[4,5-d]thieno[3,2-b]pyridin-1-yl}piperidin-1-yl)-4-oxobutanenitrile], the JAK2/JAK1 was greater than 10. Compound `C[C@@H](O)c1nc2cnc3ccsc3c2n1[C@H]1CCCN(C(=O)CCCC#N)C1` [Example 59, 5-((3S)-3-{2-[(1R)-1-Hydroxyethyl]-1H-imidazo[4,5-d]thieno[3,2-b]pyridin-1-yl}piperidin-1-yl)-5-oxopentanenitrile] has a JAK2/JAK1 greater than 10. Compound `C[C@@H](O)c1nc2cnc3ccsc3c2n1C1CCN(CCCC(F)(F)F)CC1` [Example 60, (1R)-1-{1-[1-(4,4,4-Trifluorobutyl)piperidin-4-yl]-1H-imidazo[4,5-d]thieno[3,2-b]pyridin-2-yl}ethanol] has a JAK2/JAK1 greater than 10. For `C[C@@H](O)c1nc2cnc3ccsc3c2n1C1CCN(CC#N)CC1.O=C(O)C(F)(F)F` [Example 61, (4-{2-[(1R)-1-Hydroxyethyl]-1H-imidazo[4,5-d]thieno[3,2-b]pyridin-1-yl}piperidin-1-yl)acetonitrile trifluoroacetate], the JAK2/JAK1 was greater than 10. `C[C@@H](O)c1nc2cnc3ccsc3c2n1[C@H]1CCN(CCC#N)C1` [Example 62, 3-((3S)-3-{2-[(1R)-1-Hydroxyethyl]-1H-imidazo[4,5-d]thieno[3,2-b]pyridin-1-yl}pyrrolidin-1-yl)propanenitrile] gave a JAK2/JAK1 greater than 10. `C[C@@H](O)c1nc2cnc3ccsc3c2n1[C@H]1CCN(C(=O)CC#N)C1` [Example 63, 3-((3S)-3-{2-[(1R)-1-Hydroxyethyl]-1H-imidazo[4,5-d]thieno[3,2-b]pyridin-1-yl}pyrrolidin-1-yl)-3-oxopropanenitrile] gave a JAK2/JAK1 greater than 6. Work on `C[C@@H](O)c1nc2cnc3ccsc3c2n1[C@H]1CCN(CCCC(F)(F)F)C1` [Example 64, (1R)-1-{1-[(3S)-1-(4,4,4-Trifluorobutyl)pyrrolidin-3-yl]-1H-imidazo[4,5-d]thieno[3,2-b]pyridin-2-yl}ethanol] yielded a JAK2/JAK1 greater than 10. `C[C@@H](O)c1nc2cnc3ccsc3c2n1[C@H]1CCN(CCCC#N)C1` [Example 65, 4-((3S)-3-{2-[(1R)-1-Hydroxyethyl]-1H-imidazo[4,5-d]thieno[3,2-b]pyridin-1-yl}pyrrolidin-1-yl)butanenitrile] gave a JAK2/JAK1 greater than 10. `C[C@@H](O)c1nc2cnc3ccsc3c2n1[C@H]1CCN(CCCCC#N)C1` [Example 66, 5-((3S)-3-{2-[(1R)-1-Hydroxyethyl]-1H-imidazo[4,5-d]thieno[3,2-b]pyridin-1-yl}pyrrolidin-1-yl)pentanenitrile] was tested, and the JAK2/JAK1 was greater than 10. `C[C@@H](O)c1nc2cnc3ccsc3c2n1[C@H]1CC[C@H](CC#N)[C@H](N)C1` [Example 67, ((1R,2R,4S)-2-Amino-4-{2-[(1R)-1-hydroxyethyl]-1H-imidazo[4,5-d]thieno[3,2-b]pyridin-1-yl}cyclohexyl)acetonitrile] was tested, and the JAK2/JAK1 was greater than 10. Work on `CC(N)c1nc2cnc3ccsc3c2n1[C@H]1CC[C@H](CC#N)OC1.O=C(O)C(F)(F)F` (stereo partly drawn) [Example 68, {(2R,5S)-5-[2-(1-Aminoethyl)-1H-imidazo[4,5-d]thieno[3,2-b]pyridin-1-yl]tetrahydro-2H-pyran-2-yl}acetonitrile trifluoroacetate] yielded a JAK2/JAK1 greater than 10. `CC(=O)NC(C)c1nc2cnc3ccsc3c2n1[C@H]1CC[C@H](CC#N)OC1` (stereo partly drawn) [Example 69, N-(1-{1-[(3S,6R)-6-(Cyanomethyl)tetrahydro-2H-pyran-3-yl]-1H-imidazo[4,5-d]thieno[3,2-b]pyridin-2-yl}ethyl)acetamide] gave a JAK2/JAK1 greater than 10. Compound `CNC(C)c1nc2cnc3ccsc3c2n1[C@H]1CC[C@H](CC#N)OC1` (stereo partly drawn) [Example 70, ((2R,5S)-5-{2-[1-(Methylamino)ethyl]-1H-imidazo[4,5-d]thieno[3,2-b]pyridin-1-yl}tetrahydro-2H-pyran-2-yl)acetonitrile] has a JAK2/JAK1 greater than 10. `CC(F)c1nc2cnc3ccsc3c2n1[C@H]1CC[C@H](CC#N)OC1` (stereo partly drawn) [Example 71, {(2R,5S)-5-[2-(1-Fluoroethyl)-1H-imidazo[4,5-d]thieno[3,2-b]pyridin-1-yl]tetrahydro-2H-pyran-2-yl}acetonitrile] gave a JAK2/JAK1 greater than 10. `N#CCc1nc2cnc3ccsc3c2n1[C@H]1CC[C@H](CC#N)OC1` [Example 73, {(2R,5S)-5-[2-(Cyanomethyl)-1H-imidazo[4,5-d]thieno[3,2-b]pyridin-1-yl]tetrahydro-2H-pyran-2-yl}acetonitrile] showed a JAK2/JAK1 greater than 10. `N#CCc1nc2cnc3ccsc3c2n1[C@H]1CC[C@@H](CC#N)OC1` [Example 74, {(2S,5S)-5-[2-(Cyanomethyl)-1H-imidazo[4,5-d]thieno[3,2-b]pyridin-1-yl]tetrahydro-2H-pyran-2-yl}acetonitrile] gave a JAK2/JAK1 greater than 10. Work on `C[C@@H](O)c1nc2cnc3ccsc3c2n1[C@H]1CC[C@H](CNS(C)(=O)=O)OC1` [Example 75, N-[((2R,5S)-5-{2-[(1R)-1-Hydroxyethyl]-1H-imidazo[4,5-d]thieno[3,2-b]pyridin-1-yl}tetrahydro-2H-pyran-2-yl)methyl]methanesulfonamide] yielded a JAK2/JAK1 greater than 10. `CC(C)OC(=O)NC[C@H]1CC[C@H](n2c([C@@H](C)O)nc3cnc4ccsc4c32)CO1` [Example 76, Isopropyl [((2R,5S)-5-{2-[(1R)-1-hydroxyethyl]-1H-imidazo[4,5-d]thieno[3,2-b]pyridin-1-yl}tetrahydro-2H-pyran-2-yl)methyl]carbamate] was tested, and the JAK2/JAK1 was greater than 10. `COC(=O)NC[C@H]1CC[C@H](n2c([C@@H](C)O)nc3cnc4ccsc4c32)CC1` [Example 78, Methyl [(trans-4-{2-[(1R)-1-hydroxyethyl]-1H-imidazo[4,5-d]thieno[3,2-b]pyridin-1-yl}cyclohexyl)methyl]carbamate] gave a JAK2/JAK1 greater than 10. `CC(=O)NC[C@H]1CC[C@H](n2c([C@@H](C)O)nc3cnc4ccsc4c32)CC1` [Example 79, N-[(trans-4-{2-[(1R)-1-Hydroxyethyl]-1H-imidazo[4,5-d]thieno[3,2-b]pyridin-1-yl}cyclohexyl)methyl]acetamide] gave a JAK2/JAK1 greater than 10. In the case of `C[C@@H](O)c1nc2cnc3ccsc3c2n1[C@H]1CC[C@H](CNS(C)(=O)=O)CC1` [Example 80, N-[(trans-4-{2-[(1R)-1-Hydroxyethyl]-1H-imidazo[4,5-d]thieno[3,2-b]pyridin-1-yl}cyclohexyl)methyl]methanesulfonamide], the JAK2/JAK1 was greater than 10. Compound `C[C@@H](O)c1nc2cnc3ccsc3c2n1[C@H]1CC[C@H](CNC(=O)N(C)C)CC1` [Example 81, N′-[(trans-4-{2-[(1R)-1-Hydroxyethyl]-1H-imidazo[4,5-d]thieno[3,2-b]pyridin-1-yl}cyclohexyl)methyl]-N,N-dimethylurea] has a JAK2/JAK1 greater than 10. For `CCOC(=O)NC[C@H]1CC[C@H](n2c([C@@H](C)O)nc3cnc4ccsc4c32)CC1` [Example 82, Ethyl [(trans-4-{2-[(1R)-1-hydroxyethyl]-1H-imidazo[4,5-d]thieno[3,2-b]pyridin-1-yl}cyclohexyl)methyl]carbamate], the JAK2/JAK1 was greater than 10. `CCCOC(=O)NC[C@H]1CC[C@H](n2c([C@@H](C)O)nc3cnc4ccsc4c32)CC1` [Example 83, Propyl [(trans-4-{2-[(1R)-1-hydroxyethyl]-1H-imidazo[4,5-d]thieno[3,2-b]pyridin-1-yl}cyclohexyl)methyl]carbamate] was tested, and the JAK2/JAK1 was greater than 10.
